Assay results published in patent USRE47388E1, “Agents for alleviating side effects” (TAIHO PHARMACEUTICAL CO., LTD., priority 1999, dated 2019).
Structures can show the parent of a compound that is named as a salt. Marks after values point to notes of the source that are not given here.

What was measured:
[1] = tested on: Yoshida sarcoma; assay: Test 3: action on anti-tumor action of cancer drug (tumor weight); assay type: in vivo, Donryu male rats; details: for Tumor weight: day 8; for Anti-tumor action / inhibition of tumor weight (in words): CDDP alone 6 mg/kg, Compound 1 for seven consecutive days with CDDP; for Inhibition ratio (%): tumor shrinkage vs control
[2] = Test 3: suppression of body weight increase in tumor-bearing rats; assay type: in vivo, Donryu male rats; details: for Suppression of body weight (in words): CDDP alone 6 mg/kg, Compound 1 for seven consecutive days with CDDP; for Body weight change: day 0 to day 8; for Weight change ratio (%): ratio of suppression of body weight increase vs control
Method: CDDP was suspended in saline so as to obtain a 0.6 mg/ml suspension, and the suspension was stirred by use of a stirrer for about 20 minutes at room temperature. The suspension was subjected to sonication for 5 minutes while being cooled with ice to thereby obtain a test solution containing CDDP for administration at 6.0 mg/kg/day.
Compound 1 was suspended in 0.5% HPMC so as to obtain a 3 mg/ml suspension, 10 mg/ml suspension, and 30 mg/ml suspension, respectively, and each suspension was stirred by use of a stirrer for about 20 minutes at room temperature. Each suspension was subjected to sonication for 5 minutes while being cooled with ice to thereby obtain test solutions containing Compound 1 for administration at 30 mg/kg/day, 100 mg/kg/day, and 300 mg/kg/day, respectively.
Five-week-old Donryu male rats were divided into a control group and treatment groups so that the average body weights of the groups and the standard deviations (S.D.) of the groups were made to be as close to one another as possible. Yoshida sarcoma (2×10^4 cells/0.1 ml/rat) was subcutaneously transplanted on the back of each rat, and administration was started the day following the day of transplant. To each rat of the CDDP treatment alone groups, the CDDP solution of 6.0 mg/kg was intravenously administered on the first administration day, and a 0.5% HPMC solution was orally administered for seven consecutive days at a daily dose of 1.0 ml per 100 g of body weight. […] To each rat of the control group, saline was intravenously administered on the first administration day in a dose of 1.0 ml per 100 g of body weight. Simultaneously, a 0.5% HPMC solution was orally administered once a day for five consecutive days at a daily dose of 1.0 ml per 100 g of body weight. In order to observe the action of Compound 1 per se, Compound-1-administration alone groups were provided for administration at 30 mg/kg/day, 100 mg/kg/day, and 300 mg/kg/day, respectively.
The rats were weighed on the day of transplantation (day 0) and the day following the day of final administration (day 8), and the suppression ratio of body weight increase was calculated by use of the following equation. Ratio of suppression of body weight increase (%)=(1−body weight changes of one treatment group/body weight changes of the control group)×100

[3] = Test 1: alleviating effect on suppression of body weight increase caused by 5-FU or CDDP
Method: 5-Fluorouracil (hereinafter referred to as “5-FU”) was suspended in saline so as to obtain a 2.0 mg/ml suspension, and the suspension was stirred by use of a stirrer for about 20 minutes at room temperature. The suspension was treated with sonication for 5 minutes while being cooled with ice, to thereby obtain a test solution containing 5-FU for administration at 20 mg/kg/day.
Cisplatin (hereinafter referred to as “CDDP”) was suspended in saline so as to obtain a 0.1 mg/ml suspension, and the suspension was stirred by use of a stirrer for about 20 minutes at room temperature. The suspension was treated with sonication for 5 minutes while being cooled with ice, to thereby obtain a test solution containing CDDP for administration at 1.0 mg/kg/day.
Compound 1 was suspended in water so as to obtain a 10 mg/ml suspension, and the suspension was stirred by use of a stirrer for about 20 minutes at room temperature. The suspension was treated with sonication for 5 minutes while being cooled with ice, to thereby obtain a test solution containing Compound 1 for administration at 100 mg/kg/day.
Five-week-old Donryu male rats were divided into a control group and treatment groups so that the average body weights of the groups and the standard deviations (S.D.) of the groups were made to be as close to one another as possible. To each rat of the anti-tumor-agent treatment alone groups, the 5-FU solution or the CDDP solution was intravenously administered once a day for four consecutive days at a daily dose of 1.0 ml per 100 g of body weight. Simultaneously, water was orally administered once a day for four consecutive days at a daily dose of 1.0 ml per 100 g of body weight. To each rat of the combination-administration treatment groups, the 5-FU solution or the CDDP solution was intravenously administered once a day for four consecutive days at a daily dose of 1.0 ml per 100 g of body weight. Simultaneously, to each rat of the combination-administration groups, the solution of Compound 1 was orally administered once a day for four consecutive days at a daily dose of 1.0 ml per 100 g of body weight. To each rat of the control group, saline was intravenously administered once a day for four consecutive days at a daily dose of 1.0 ml per 100 g of body weight. Simultaneously, water was orally administered once a day for four consecutive days at a daily dose of 1.0 ml per 100 g of body weight.
The rats were weighed prior to initiation of administration (day 1) and on the day following the day of final administration (day 5), and the ratio of suppression of body weight increase was calculated by use of the following equation.
Test results were statistically analyzed using the Student's “T” test. […]

[4] = Test 2: delaying effect on diarrhea occurrence caused by CPT-11; assay type: in vivo, Donryu male rats; details: CPT-11 60 mg/kg/day i.v. every day for five days; Compound 1 30 mg/kg/day oral concomitantly
Method: Irinotecan hydrochloride (hereinafter referred to as “CPT-11”; KAMPTO Injection 100 mg/5 ml; product of Yakult Co., Ltd.) was diluted with saline so as to obtain a 6 mg/ml solution for administration at 60 mg/kg/day.
Compound 1 was suspended in a 0.5% hydroxypropylmethyl cellulose solution (hereinafter referred to as “0.5% HPMC”) so as to obtain a 3 mg/ml suspension, and the suspension was stirred by use of a stirrer for about 20 minutes at room temperature. The suspension was subjected to ultrasound treatment for 5 minutes while being cooled with ice, to thereby obtain a test solution containing Compound 1 for administration at 30 mg/kg/day.
Five-week-old Donryu male rats were divided into a control group and treatment groups so that the average body weights of the groups and the standard deviations (S.D.) of the groups were made to be as close to one another as possible. To each rat of the anti-tumor-agent treatment alone groups, the CPT-11 solution was intravenously administered once a day for five consecutive days at a daily dose of 1.0 ml per 100 g of body weight. […] The number of rats which had diarrhea at least once during the test period were counted as “diarrhea-rats”. The accumulated occurrence of diarrhea was calculated by use of the following equation: accumulated occurrence of diarrhea (%)=(the number of rats which had diarrhea/the total number of rats)×100

[5] = tested on: IL-6; assay: Test 4: IL-6 level in the small intestine and the large intestine (ELISA); assay type: in vivo, ICR mice; details: for Level of inflammatory cytokine IL-6 in the small intestine and the large intestine (in words): FTD 200 mg/kg/day eight consecutive days vs control, Compound 1 94 mg/kg incorporated; for Large intestine IL-6 / Small intestine IL-6: day 9, oral, eight days, FTD 200 mg/kg/day, Compound 1 94 mg/kg/day in the mixture, alone 100 mg/kg/day
Method: (§1) To each rat of the control group, a 0.5% HPMC solution was perorally administered for eight consecutive days. In order to observe the action of Compound 1 per se, Compound 1-administration alone groups were provided for administration of 100 mg/kg/day. […] Immediately after the collected region were washed with saline, the portions were frozen to preserve at −80° C. Each sample preparation was diluted with a 0.05M phosphate buffer (pH 7.4) so as to attain a tissue concentration of approximately 10% (W/V), and the resultant mixture was homogenized, subjected to sonication, and subjected twice to freeze-thawing. The thus-treated matter was centrifuged at 12,000 g for 15 minutes, and the supernatant was collected to serve as a sample for cytokine measurement. Cytokines, i.e., IL-1β and mouse IL-6 were measured by use of an ELISA kit for mouse (product of Endogen, Inc.), and the results are shown in Table 4. Test results were statistically analyzed in accordance with the Dunnett method ((*; p<0.05) and (**; p<0.01)).

[6] = tested on: IL-1β; assay: Test 4: IL-1β level in the large intestine (ELISA); assay type: in vivo, ICR mice; details: for Level of IL-1β in the large intestine (in words): FTD 200 mg/kg/day eight consecutive days vs control, Compound 1 94 mg/kg incorporated; for Large intestine IL-1β: day 9, oral, eight days, FTD 200 mg/kg/day, Compound 1 94 mg/kg/day in the mixture, alone 100 mg/kg/day
Method: as §1

[7] = Test 4: measurement of body weight change after FTD; assay type: in vivo, ICR mice; details: for Weight change ratio (%): body weight changes/body weight before administration x100, eight days, alone 100 mg/kg/day; for Weight change ratio (%) / Body weight change: oral, FTD 200 mg/kg/day, Compound 1 94 mg/kg/day in the mixture; for Body weight change: day 0 to day 9, eight consecutive days, Compound 1 alone 100 mg/kg/day
Method: 5-Trifluoromethyl-2′-deoxyuridine (hereinafter abbreviated as FTD) was suspended in a 0.5% HPMC solution so as to obtain a 20 mg/ml suspension, and the suspension was stirred by use of a stirrer for about 20 minutes at room temperature.
FTD was suspended in a 0.5% HPMC solution so as to obtain a 20 mg/ml suspension. To the suspension, Compound 1 was added so as to attain a concentration of 9.4 mg/ml. The resultant mixture was stirred by use of a stirrer for about 20 minutes at room temperature, and then subjected to sonication under ice cooling, to thereby obtain a test solution containing FTD and Compound 1 (mol ratio 1:0.5).
Compound 1 was suspended in a 0.5% HPMC solution so as to obtain a 10 mg/ml suspension, and the suspension was stirred by use of a stirrer for about 20 minutes at room temperature. The suspension was subjected to sonication for 5 minutes under ice cooling, to thereby obtain a test solution containing Compound 1 for administration of 100 mg/kg/day.
Eight-week-old male ICR rats were divided into a control group and treatment groups so that the average body weights of the groups and the standard deviations (S.D.) of the groups were made to be as close to one another as possible. To each rat of the FTD treatment alone groups, the FTD solution of 200 mg/kg/day (1.0 ml) was orally administered once a day for eight consecutive days (per 100 g body weight of each rat). To each rat of combination-administration treatment groups, a mixture solution of FTD and Compound 1 was perorally administered once a day for eight consecutive days at a daily dose of 1.0 ml per 100 g of body weight. To each rat of the control group, a 0.5% HPMC solution was perorally administered for eight consecutive days. In order to observe the action of Compound 1 per se, Compound 1-administration alone groups were provided for administration of 100 mg/kg/day.
The rats were weighed at the previous day of the first administration (day 0) and the following day of the day of final administration (day 9), and the ratio of body weight ratio was calculated by use of the following equation. Ratio of body weight change (%)=body weight changes/body weight before administration×100

[8] = CDDP 6.0 mg/kg i.v. on first day + vehicle oral 7 days
[9] = Compound 1 30 mg/kg/day oral 7 days, with CDDP 6.0 mg/kg i.v. day 1 or saline
[10] = Compound 1 100 mg/kg/day oral 7 days, with CDDP 6.0 mg/kg i.v. day 1 or saline
[11] = Compound 1 300 mg/kg/day oral 7 days, with CDDP 6.0 mg/kg i.v. day 1 or saline

[NH2][Pt]([NH2])([Cl])[Cl] [CDDP, Cisplatin, reference compound]
Tumor weight ([1]; CDDP 6.0 mg/kg i.v. on first day + 0.5% HPMC vehicle oral 7 days): 0.162 ± 0.155 g
Anti-tumor action / inhibition of tumor weight (in words) [1]: Significant inhibition of tumor weight
Inhibition ratio (%) [1, 8]: 75.7%
Suppression of body weight (in words) [2]: Significant inhibition
Body weight change [2, 8]: -19.4 ± 8.6 g
Weight change ratio (%) [2, 8]: 174.9%

O=c1[nH]cc(F)c(=O)[nH]1 [Compound 5-FU, 5-Fluorouracil]
Suppression of body weight increase (in words) ([3]; 5-FU 20 mg/kg/day or CDDP 1.0 mg/kg/day for 4 consecutive days, Compound 1 100 mg/kg/day in combination with the anti-tumor agent): Suppression of body weight increase was confirmed
Body weight change ([3]; day 1 to day 5, 5-FU 20 mg/kg/day or CDDP 1.0 mg/kg/day i.v., Compound 1 100 mg/kg/day oral, four consecutive days, mean ± S.D.): 15.6 ± 3.6 g
Suppression ratio (%) (ratio of suppression of body weight increase) ([3]; vs control group, 5-FU 20 mg/kg/day or CDDP 1.0 mg/kg/day i.v., Compound 1 100 mg/kg/day oral, four consecutive days): 46.7%

CCc1c2c(nc3ccc(OC(=O)N4CCC(N5CCCCC5)CC4)cc13)-c1cc3c(c(=O)n1C2)COC(=O)[C@]3(O)CC [CPT-11, Irinotecan hydrochloride, reference compound]
Accumulated occurrence of diarrhea (FIG. 1, in words) [4]: diarrhea occurred after the third administration day

O=c1[nH]c(=O)n([C@H]2C[C@H](O)[C@@H](CO)O2)cc1C(F)(F)F [FTD, 5-Trifluoromethyl-2′-deoxyuridine, reference compound]
Level of inflammatory cytokine IL-6 in the small intestine and the large intestine (in words) [5]: high level
Large intestine IL-6 [5]: 118.0 ± 47.6** pg/mg protein
Small intestine IL-6 [5]: 95.5 ± 19.2** pg/mg protein
Level of IL-1β in the large intestine (in words) [6]: elevated
Large intestine IL-1β [6]: 77.3 ± 42.1** pg/mg protein
Weight change ratio (%) [7]: −17.6%
Body weight change [7]: -1.6 ± 4.7 g
Decrease ratio of the body weight at the following day of the final administration to that before administration ([7]; solo FTD 200 mg/kg daily for eight consecutive days): approximately 18%

Cl.N=C1CCCN1Cc1[nH]c(=O)[nH]c(=O)c1Cl [Compound 1, 5-Chloro-6-(2-iminopyrrolidin-1-yl)methyl-2,4-(1H,3H)-pyrimidinedione Hydrochloride]
Level of inflammatory cytokine IL-6 in the small intestine and the large intestine (in words) [5]: inhibited
Large intestine IL-6 [5]: 10.7 ± 4.7 pg/mg protein
Small intestine IL-6 [5]: 19.8 ± 9.9 pg/mg protein
Accumulated occurrence of diarrhea (FIG. 1, in words) [4]: delayed
Occurrence of diarrhea, combination-administration groups vs anti-tumor-agent-administration alone groups ([3]; Compound 1 100 mg/kg/day with 5-FU 20 mg/kg/day or CDDP 1.0 mg/kg/day): lower
Level of IL-1β in the large intestine (in words) [6]: inhibited
Large intestine IL-1β [6]: 23.7 ± 4.6 pg/mg protein
Anti-tumor action / inhibition of tumor weight (in words) [1]: without affecting the anti-tumor action
Tumor weight [1, 9]: 0.787 ± 0.307 g
Tumor weight [1, 10]: 0.816 ± 0.329 g
Tumor weight [1, 11]: 0.829 ± 0.281 g
Inhibition ratio (%) [1, 9]: −18.1%
Inhibition ratio (%) [1, 10]: −22.4%
Inhibition ratio (%) [1, 11]: −24.5%
Decrease in the body weight caused by FTD (in words) ([7]; Compound 1 94 mg/kg/day incorporated with FTD 200 mg/kg/day): protected
Weight change ratio (%) [7]: 6.8%
Body weight change [7]: 2.4 ± 1.1 g
Suppression of body weight (in words) [2]: suppression of body weight was alleviated
Body weight change [2, 9]: 29.3 ± 10.2 g
Body weight change [2, 10]: 23.9 ± 6.6 g
Body weight change [2, 11]: 28.1 ± 6.0 g
Weight change ratio (%) [2, 9]: −13.1%
Weight change ratio (%) [2, 10]: 7.7%
Weight change ratio (%) [2, 11]: −8.5%
